Test results as given in US11267852B2, “Cell lines for screening odorant and aroma receptors” (Firmenich SA, priority 2015, dated 2022).

Assays:
OR1A1 = target: T1, OR1A1 (Homo sapiens, UniProt Q9P1Q5); assay: cell-based odorant assay, cAMP increase (HTRF), OR1A1; settings: modified RTP1 HEK293T cell line compared to unmodified control cell line
T1 construct: expressed in transfected cells
T1 sequence (Q9P1Q5 1-309): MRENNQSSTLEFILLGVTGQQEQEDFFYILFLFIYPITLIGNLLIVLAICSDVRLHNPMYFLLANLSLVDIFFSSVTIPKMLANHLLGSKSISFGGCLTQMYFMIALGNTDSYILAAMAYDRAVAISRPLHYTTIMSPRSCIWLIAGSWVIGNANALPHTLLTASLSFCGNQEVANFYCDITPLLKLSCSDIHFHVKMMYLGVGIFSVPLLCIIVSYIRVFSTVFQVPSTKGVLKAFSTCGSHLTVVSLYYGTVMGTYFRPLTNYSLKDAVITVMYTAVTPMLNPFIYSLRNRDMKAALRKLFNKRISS

Olfr741 = assay: cell-based odorant assay, cAMP increase (HTRF), Olfr741; design: species or system mouse
Description: (§1) Functional dose-response experiments were performed in order to evaluate the level of functional enhancement of activity of odorant receptors in the modified cell line. Odorant receptors were modified at their N-terminus with short polypeptide sequences or tags [e.g. Flag (SEQ ID NO: 15), Rho (SEQ ID NO: 17; 20 first amino acids of the bovine rhodopsin receptor), or Lucy (SEQ ID NO: 19)], transiently expressed in WT or modified HEK293T cells, and stimulated with odorant compounds to determine the activity of the receptors. FIGS. 7 and 8) Using a cell-based odorant binding assay, the activity of Olfr741 (SEQ ID NO: 4) and Olfr742 (SEQ ID NO: 6) to indole was tested in the engineered RTP1 cell line and compared to HEK293T lacking RTP1 protein expression. Odorant receptors were transfected into both cell lines and exposed to increasing concentrations of indole. Odorant-induced activity was detected by measuring the level of cAMP increase in the cytosol using an HTRF based kit (CisBio, cAMP dynamic 2 kit, cat #62AM4PEJ). FIGS. 9 and 10) Using the same cell-based odorant binding assay, the activity of Olfr96 (SEQ ID NO: 8) and OR11A1 (SEQ ID NO: 10) to vulcanolide was tested in the engineered RTP1 expressing cell line and compared to HEK293T lacking RTP1 protein expression. The activity of Olfr740 (SEQ ID NO: 12) to indole was also tested in both cellular backgrounds. […]

Olfr740 = assay: cell-based odorant assay, cAMP increase (HTRF), Olfr740; design: species or system mouse
Description: as §1

Olfr742 = assay: cell-based odorant assay, cAMP increase (HTRF), Olfr742; design: species or system mouse
Description: as §1

Olfr96 = assay: cell-based odorant assay, cAMP increase (HTRF), Olfr96; design: species or system mouse
Description: as §1

OR11A1 = target: T2, OR11A1 (Homo sapiens, UniProt Q9GZK7); assay: cell-based odorant assay, cAMP increase (HTRF), OR11A1
T2 construct: expressed in transfected cells
T2 sequence (Q9GZK7 1-315): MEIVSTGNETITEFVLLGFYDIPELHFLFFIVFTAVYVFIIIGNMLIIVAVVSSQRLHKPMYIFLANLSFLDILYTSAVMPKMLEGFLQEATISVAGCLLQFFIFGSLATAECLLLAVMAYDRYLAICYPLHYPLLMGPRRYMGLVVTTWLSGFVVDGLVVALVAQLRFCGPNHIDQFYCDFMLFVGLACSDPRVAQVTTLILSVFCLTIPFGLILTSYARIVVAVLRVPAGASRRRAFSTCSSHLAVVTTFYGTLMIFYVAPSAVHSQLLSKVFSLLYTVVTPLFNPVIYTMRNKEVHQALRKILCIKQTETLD
Description: as §1

[1] = modified RTP1 HEK293T cell line, increasing concentrations
[2] = unmodified control HEK293T lacking RTP1 expression

## C=C(C)C1CC=C(C)C(=O)C1 (stereo not drawn) [carvone-(−)]
OR1A1
  receptor activity (cAMP increase), dose-response: more potent dose-dependent increase of receptor activity

## c1ccc2[nH]ccc2c1 [indole]
Olfr741; [1]
  receptor activity (cAMP increase), dose-response: dose-dependent increase of receptor activity
Olfr741; [2]
  receptor activity (cAMP increase), dose-response: not in the unmodified control cell line
Olfr740; [1]
  receptor activity (cAMP increase), dose-response: dose-dependent increase of receptor activity
Olfr740; [2]
  receptor activity (cAMP increase), dose-response: not in the unmodified control cell line
Olfr742; [1]
  receptor activity (cAMP increase), dose-response: dose-dependent increase of receptor activity
Olfr742; [2]
  receptor activity (cAMP increase), dose-response: not in the unmodified control cell line

## Cc1cc2c(cc1C=O)C(C)(C)[C@@H](C)[C@H](C)C2(C)C [vulcanolide]
Olfr96; [1]
  receptor activity (cAMP increase), dose-response: dose-dependent increase of receptor activity
Olfr96; [2]
  receptor activity (cAMP increase), dose-response: not in the unmodified control cell line
OR11A1; [1]
  receptor activity (cAMP increase), dose-response: dose-dependent increase of receptor activity
OR11A1; [2]
  receptor activity (cAMP increase), dose-response: not in the unmodified control cell line
